# Assay results taken from patent US20220251153A1, “PEPTIDES FOR THE TREATMENT OF RENAL DISORDERS” (THE GEORGE WASHINGTON UNIVERSITY, priority 2019, published 2022).
# What was measured:
# Format in all cases: in vivo, mouse
# [1] = test system: C57Bl/6 mice with unilateral ureter obstruction (UUO); test: Sirius Red staining of kidney sections, UUO model of renal fibrosis; settings: 3 mg/kg subcutaneously the day before and daily for 14 days after UUO
# Description: The effect of ND-13 on renal disease was then assessed. Unilateral ureter obstruction (UUO) was chosen as a model of renal disease to determine if ND-13 has a protective effect. The UUO model is an known model of human and animal kidney disease, which mimics the effects of chronic kidney disease and diabetes (i.e., diabetic nephropathy), due to its capability of generating a progressive renal (tubule interstitial) fibrosis and has advantages of good reproducibility, a short time course and the presence of a contralateral kidney as control.
# C57Bl/6 control mice as well as DJ-1 knockout mice were subjected to UUO in order to examine mechanisms involved in renal tubule interstitial fibrosis in vivo and to determine if ND-13 has a protective effect against renal disease. DJ-1 knockout mice used herein were from the original F2 hybrid strain (129/SvXC57BL/6J) that contained the mutated DJ-1 allele (DJ-1−/−) backcrossed to wild-type C57BL/6J for >20 generations and genotyped. […]
# Renal interstitial fibrosis was assessed in the mice by Sirius Red staining. […] Sirius Red staining was examined with an Olympus BX-41 microscope and the amount of collagen in the kidney was quantified by ImageJ software. Two images of about 70% of the renal cortical sections were used in the quantification. […]
# [2] = test system: DJ-1 knockout mice with unilateral ureter obstruction (UUO); test: Urinary NGAL ELISA after UUO; settings: urine 14 days after UUO, 3 mg/kg subcutaneously daily
# Text: (§1) C57Bl/6 control mice as well as DJ-1 knockout mice were subjected to UUO in order to examine mechanisms involved in renal tubule interstitial fibrosis in vivo and to determine if ND-13 has a protective effect against renal disease. DJ-1 knockout mice used herein were from the original F2 hybrid strain (129/SvXC57BL/6J) that contained the mutated DJ-1 allele (DJ-1−/−) backcrossed to wild-type C57BL/6J for >20 generations and genotyped. Prior to UUO, ND-13 peptide and scrambled control peptide (3 mg/kg diluted in […] of saline) were injected subcutaneously to C57Bl/6 and DJ-1 knockout mice the day before performing the complete UUO. For UUO surgery, the procedure was performed as follows. Briefly, mice were anesthetized with isofluorane (3-5% for induction and 1-3% for maintenance) and divided into two experimental groups: the UUO group and the sham operation group. In the UUO group, mice were shaved on the left side of the abdomen, a vertical incision was made through the skin with a scalpel and the skin was retracted. A second incision was made through the peritoneum to expose the kidney. The left ureter was ligated twice 15 mm below the renal pelvis with surgical silk and the ureter was then severed between the two ligatures. Then, the ligated kidney was placed gently back into its correct anatomical position and sterile saline was added to replenish loss of fluid. […]
# [3] = test system: C57Bl/6 mice with unilateral ureter obstruction (UUO); test: Urinary NGAL ELISA after UUO; settings: urine 14 days after UUO, 3 mg/kg subcutaneously daily
# Text: as §1
# [4] = test system: TNF-alpha, IL-6, Col1a1 and TGF-beta mRNA in kidneys of DJ-1 knockout mice with UUO; test: qRT-PCR of renal inflammatory and fibrotic marker mRNA after UUO; settings: 14 days after UUO, normalized by GAPDH
# Text: (§2) C57Bl/6 control mice as well as DJ-1 knockout mice were subjected to UUO in order to examine mechanisms involved in renal tubule interstitial fibrosis in vivo and to determine if ND-13 has a protective effect against renal disease. DJ-1 knockout mice used herein were from the original F2 hybrid strain (129/SvXC57BL/6J) that contained the mutated DJ-1 allele (DJ-1−/−) backcrossed to wild-type C57BL/6J for >20 generations and genotyped. Prior to UUO, ND-13 peptide and scrambled control peptide (3 mg/kg diluted in […] of saline) were injected subcutaneously to C57Bl/6 and DJ-1 knockout mice the day before performing the complete UUO. For UUO surgery, the procedure was performed as follows. Briefly, mice were anesthetized with isofluorane (3-5% for induction and 1-3% for maintenance) and divided into two experimental groups: the UUO group and the sham operation group. In the UUO group, mice were shaved on the left side of the abdomen, a vertical incision was made through the skin with a scalpel and the skin was retracted. A second incision was made through the peritoneum to expose the kidney. The left ureter was ligated twice 15 mm below the renal pelvis with surgical silk and the ureter was then severed between the two ligatures. Then, the ligated kidney was placed gently back into its correct anatomical position and sterile saline was added to replenish loss of fluid. The incisions were sutured and mice were individually caged. Buprenorphine was used as an analgesic. 24 hours after UUO surgery, the ND-13 peptide and scrambled control peptide (3 mg/kg diluted in […] of saline) were injected subcutaneously to C57Bl/6 and DJ-1 knockout mice and then injected every day thereafter for 14 days following UUO. Untreated normal C57Bl/6 mice served as a control. After 14 days, urine was collected and the mice were sacrificed. Tissues, including the kidneys, were obtained for analyses.
# (§3) Next, the effect of ND-13 on mRNA expression of inflammatory and fibrotic markers in the kidneys of mice with UUO was tested. Briefly, RNA was extracted from whole renal tissue harvested from ND-13-treated C57Bl/6 and DJ-1 knockout mice 14 days after the UUO procedure. RNA extracted from untreated C57Bl/6 mice served as the control. The extracted RNA was subjected to qRT-PCR using standard methods. The mRNA expression of TNF-alpha (tumor necrosis factor alpha), IL-6 (Interleukin 6), Col1a1 (collagen, type I, alpha 1) and TGF-beta (transforming growth factor beta) were quantified by qRT-PCR in mice from each group. Data were normalized by expression of the house keeping gene GAPDH (glyceraldehyde 3-phosphate dehydrogenase). […] The increased renal expressions of TNF alpha and IL-6, and TGF-beta associated with UUO was decreased by ND-13 in both C57Bl/6 mice (FIGS. 3A, 3B, and 3D) and DJ-1 knockout mice (FIGS. 3E, 3F, and […]).
# [5] = test system: TNF-alpha, IL-6, Col1a1 and TGF-beta mRNA in kidneys of C57Bl/6 mice with UUO; test: as above; settings: 14 days after UUO, normalized by GAPDH
# Text: as §2, §3
sequence,measurement,setting,value
YGRKKRRKGAEEMETVIPVD [ND-13],"renal interstitial fibrosis (collagen, Sirius Red staining)",[1],prevented fibrosis
same,urinary NGAL (marker of renal damage),[2],not protected
same,urinary NGAL (marker of renal damage),[3],decreased urinary NGAL to control levels
same,renal mRNA expression of Col1a1,[4],not DJ-1 knockout mice
same,renal mRNA expression of IL-6,[4],decreased
same,renal mRNA expression of TGF-beta,[4],decreased
same,renal mRNA expression of TNF-alpha,[4],decreased
same,renal mRNA expression of Col1a1,[5],decreased
same,renal mRNA expression of IL-6,[5],decreased
same,renal mRNA expression of TGF-beta,[5],decreased
same,renal mRNA expression of TNF-alpha,[5],decreased
